Biological target: prenyl cysteine methyltransferase (Bos taurus, UniProt A0AAA9SD88)
Assay: Prenyl cysteine methyltransferase assay (3H-methyl transfer from S-adenosylmethionine to AFC, vapor-phase equilibrium)
Assay type: biochemical
Details: 5.0 μM (3H-methyl)-S-adenosylmethionine, 83,000×g pellet of bovine brain, 37° C., pH 7.9
Protocol: To a putative source of prenyl cysteine methyl transferase enzyme is added 50 μM of N-acetyl-S-farnesyl cysteine ("AFC") and 5.0 μM (^3 H-methyl)-S-adenosylmethionine (specific activity 16,000 cpm/pmol) in 100 mM tris-HCl, 1 mM EDTA, 1 mM DTT, pH 7.9 in a final volume of 150 μL. After heating the mixture at 37° C. for 5 to 25 minutes, 25 μL of the mixture is removed and added to 250 μL of heptane. The mixture is immediately vortexed to extract N-acetyl-S-farnesyl cysteine methyl ester into the organic phase. The mixture then is centrifuged for 30 seconds, and placed in a dry ice/acetone bath to quench the reaction. The heptane layer (200 μL) is removed and added to a 1.5 mL capless Eppendorf microcentrifuge tube. The heptane is evaporated in a Speedvac, and 25 μL of 1M sodium hydroxide is added to the remaining residue. The ^3 H-methanol produced from the hydrolysis of the ^3 H-methylesters is assayed by the vapor-phase equilibrium procedure as described in Stock, J. B., et al. (1984) Methods Enzymology, 106, 310-321 which is incorporated herein by reference.
A sample of 0.003 grams of 83,000×g. pellet from homogenized bovine brain after previous removal of the 14,000×g. pellet was subjected to the foregoing assay.

Chain of prenyl cysteine methyltransferase (A0AAA9SD88 1-284): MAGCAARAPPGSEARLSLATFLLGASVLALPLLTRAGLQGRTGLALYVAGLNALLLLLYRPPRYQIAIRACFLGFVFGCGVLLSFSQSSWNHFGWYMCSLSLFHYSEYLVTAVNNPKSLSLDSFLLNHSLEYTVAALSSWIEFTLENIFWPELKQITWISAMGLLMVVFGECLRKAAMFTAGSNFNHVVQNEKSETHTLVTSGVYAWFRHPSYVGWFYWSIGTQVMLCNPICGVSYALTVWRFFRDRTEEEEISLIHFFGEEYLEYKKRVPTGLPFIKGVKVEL

- cpm (w/50 μM AFC) (5 min): 199.5 cpm
- cpm (w/50 μM AFC) (10 min): 343.5 cpm
- cpm (w/50 μM AFC) (15 min): 393.5 cpm
- cpm (w/50 μM AFC) (20 min): 543.0 cpm
- cpm (w/50 μM AFC) (25 min): 616.0 cpm
SMILES: CC(=O)N[C@@H](CSC/C=C(\C)CC/C=C(\C)CCC=C(C)C)C(=O)O [AFC, N-Acetyl, S-trans,trans-farnesyl-L-cysteine]

Reference: patent US5043268A, “Substrates and inhibitors for prenyl cysteine methyltransferase enzymes” (The Trustees of Princeton University, priority 1990, dated 1991)
